Tests used:
Melanocortin receptor 4 [1] = target: T1, Melanocortin receptor 4 (Homo sapiens, UniProt P32245); assay: Displacement of [125I]NDP-alpha-MSH from human MC4 receptor expressed in CHO cells; type: cell-based
Melanocortin receptor 4 [2] = target: T1, Melanocortin receptor 4; assay: Agonist activity at human MC4 receptor expressed in CHO cells assessed as increase of alpha-MSH-induced cAMP accumulation; type: functional, cell-based
Melanocortin receptor 4 [3] = target: T1, Melanocortin receptor 4; assay: Agonist activity at human MC4 receptor expressed in CHO cells assessed as increase of alpha-MSH-induced cAMP accumulation at 10 uM relative to alpha-MSH; type: functional, cell-based
Melanocortin receptor 3 [4] = target: T2, Melanocortin receptor 3 (Homo sapiens, UniProt P41968); assay: Agonist activity at human MC3 receptor expressed in CHO cells assessed as increase of alpha-MSH-induced cAMP accumulation; type: functional, cell-based
Melanocortin receptor 5 [5] = target: T3, Melanocortin receptor 5 (Homo sapiens, UniProt P33032); assay: Displacement of [125I]NDP-alpha-MSH from human MC5 receptor expressed in CHO cells; type: cell-based
Melanocortin receptor 5 [6] = target: T3, Melanocortin receptor 5; assay: Agonist activity at human MC5 receptor expressed in CHO cells assessed as increase of alpha-MSH-induced cAMP accumulation; type: functional, cell-based
[7] = target: T4, Melanocyte-stimulating hormone receptor (Homo sapiens, UniProt Q01726); assay: Displacement of [125I]NDP-alpha-MSH from human MC1 receptor expressed in CHO cells; type: cell-based
Target sequence in this assay (Q01726 whole entry): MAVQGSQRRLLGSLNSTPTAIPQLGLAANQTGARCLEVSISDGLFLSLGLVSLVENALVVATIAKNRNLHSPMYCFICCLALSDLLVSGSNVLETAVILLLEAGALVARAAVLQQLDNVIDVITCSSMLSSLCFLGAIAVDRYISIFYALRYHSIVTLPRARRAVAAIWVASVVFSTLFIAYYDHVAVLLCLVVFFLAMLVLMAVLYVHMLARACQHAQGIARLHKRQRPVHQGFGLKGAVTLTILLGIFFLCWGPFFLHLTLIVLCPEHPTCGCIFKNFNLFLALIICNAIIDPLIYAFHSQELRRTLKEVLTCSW

[8] = target: T4, Melanocyte-stimulating hormone receptor; assay: Agonist activity at human MC1 receptor expressed in CHO cells assessed as increase of alpha-MSH-induced cAMP accumulation; type: functional, cell-based
Target sequence in this assay (Q01726 whole entry): as above

Melanocortin receptor 3 [9] = target: T2, Melanocortin receptor 3; assay: Displacement of [125I]NDP-alpha-MSH from human MC3 receptor expressed in CHO cells; type: cell-based
Melanocortin receptor 3 [10] = target: T2, Melanocortin receptor 3; assay: Agonist activity at human MC3 receptor expressed in CHO cells assessed as increase of alpha-MSH-induced cAMP accumulation at 10 uM relative to alpha-MSH; type: functional, cell-based
Melanocortin receptor 5 [11] = target: T3, Melanocortin receptor 5; assay: Agonist activity at human MC5 receptor expressed in CHO cells assessed as increase of alpha-MSH-induced cAMP accumulation at 10 uM relative to alpha-MSH; type: functional, cell-based
[12] = target: T4, Melanocyte-stimulating hormone receptor; assay: Agonist activity at human MC1 receptor expressed in CHO cells assessed as increase of alpha-MSH-induced cAMP accumulation at 10 uM relative to alpha-MSH; type: functional, cell-based
Target sequence in this assay (Q01726 whole entry, looked up): as the sequence (Q01726 whole entry) above

Homo sapiens [13] = species on record: Homo sapiens; assay: Selectivity ratio of IC50 for human MC1 receptor to IC50 for human MC4 receptor
Homo sapiens [14] = species on record: Homo sapiens; assay: Selectivity ratio of EC50 for human MC1 receptor to EC50 for human MC4 receptor
Homo sapiens [15] = species on record: Homo sapiens; assay: Selectivity ratio of IC50 for human MC5 receptor to IC50 for human MC4 receptor
Homo sapiens [16] = species on record: Homo sapiens; assay: Selectivity ratio of EC50 for human MC5 receptor to EC50 for human MC4 receptor

T2 sequence (P41968 whole entry): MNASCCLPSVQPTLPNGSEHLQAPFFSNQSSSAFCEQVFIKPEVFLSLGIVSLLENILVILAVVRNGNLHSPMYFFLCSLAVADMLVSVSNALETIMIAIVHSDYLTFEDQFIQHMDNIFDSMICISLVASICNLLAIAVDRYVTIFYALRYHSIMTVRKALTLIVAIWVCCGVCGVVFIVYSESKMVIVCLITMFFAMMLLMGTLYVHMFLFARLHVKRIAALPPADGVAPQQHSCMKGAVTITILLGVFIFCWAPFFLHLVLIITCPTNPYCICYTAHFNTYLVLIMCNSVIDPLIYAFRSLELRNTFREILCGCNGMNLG
T1 sequence (P32245 whole entry): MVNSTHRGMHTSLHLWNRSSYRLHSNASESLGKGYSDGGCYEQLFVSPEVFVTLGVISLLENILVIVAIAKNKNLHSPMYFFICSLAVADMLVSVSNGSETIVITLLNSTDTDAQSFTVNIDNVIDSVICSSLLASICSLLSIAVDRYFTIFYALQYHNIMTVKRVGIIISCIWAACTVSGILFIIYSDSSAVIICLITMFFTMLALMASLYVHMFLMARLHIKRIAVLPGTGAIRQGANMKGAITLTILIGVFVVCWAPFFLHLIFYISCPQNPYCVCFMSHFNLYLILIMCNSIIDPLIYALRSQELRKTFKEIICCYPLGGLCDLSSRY
T3 sequence (P33032 whole entry): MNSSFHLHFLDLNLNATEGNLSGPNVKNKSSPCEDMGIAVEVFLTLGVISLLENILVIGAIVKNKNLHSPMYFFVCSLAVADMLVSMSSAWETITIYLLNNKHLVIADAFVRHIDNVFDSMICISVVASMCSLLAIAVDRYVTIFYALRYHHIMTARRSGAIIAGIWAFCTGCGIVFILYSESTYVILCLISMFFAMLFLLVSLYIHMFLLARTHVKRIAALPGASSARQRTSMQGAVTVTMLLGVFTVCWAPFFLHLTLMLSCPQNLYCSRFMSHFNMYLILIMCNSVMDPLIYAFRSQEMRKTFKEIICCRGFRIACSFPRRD

Row | Structure (SMILES) | IC50 (Melanocortin receptor 4 [1]) [µM] | EC50 (Melanocortin receptor 4 [2]) [µM] | Activity (Melanocortin receptor 4 [3]) [%] | other results
1 | CC(=O)N(CC(C1CCCCC1)N1CCN(C(=O)[C@@H]2CN(C(C)(C)C)C[C@H]2c2ccc(F)cc2F)CC1)C(C)C (single isomer, unassigned; diastereomer 1) [listing 1 of 2 here] | 0.029 | 0.05 |  | 
2 | CC(=O)N(CC(CC(C)C)N1CCN(C(=O)[C@@H]2CN(C(C)(C)C)C[C@H]2c2ccc(F)cc2F)CC1)C(C)C (single isomer, unassigned; diastereomer 1) [listing 1 of 2 here] |  |  | 101 | 
3 | CC(C)N(CC(N1CCN(C(=O)[C@@H]2CN(C(C)(C)C)C[C@H]2c2ccc(F)cc2F)CC1)C(C)(C)C)S(C)(=O)=O (stereo in doubt; 27B) [listing 1 of 2 here] | 0.046 | 0.044 |  | 
4 | CC(=O)N(CC(CC(C)C)N1CCN(C(=O)[C@@H]2CN(C(C)(C)C)C[C@H]2c2ccc(F)cc2F)CC1)C(C)C (single isomer, unassigned; diastereomer 1) [listing 2 of 2 here] | 0.049 | 0.029 |  | 
5 | CC(C)N(CC(C1CCCCC1)N1CCN(C(=O)[C@@H]2CN(C(C)(C)C)C[C@H]2c2ccc(F)cc2F)CC1)C(=O)c1ncccn1 (stereo in doubt; 22B) [listing 1 of 2 here] |  |  | 88 | 
6 | CC(C)N(CC(N1CCN(C(=O)[C@@H]2CN(C(C)(C)C)C[C@H]2c2ccc(F)cc2F)CC1)C(C)(C)C)S(C)(=O)=O (stereo in doubt; 27B) [listing 2 of 2 here] |  |  | 102 | 
7 | CC(C)CN(CC(C)C)CC(C1CCCCC1)N1CCN(C(=O)[C@@H]2CN(C(C)(C)C)C[C@H]2c2ccc(F)cc2F)CC1 (stereo partly drawn) | 1.9 | 6.7 | 10 | 
8 | CC(C)CC(CN(C(C)C)S(C)(=O)=O)N1CCN(C(=O)[C@@H]2CN(C(C)(C)C)C[C@H]2c2ccc(F)cc2F)CC1 (single isomer, unassigned; diastereomer 2) [listing 1 of 2 here] | 0.027 | 0.019 |  | EC50 (Melanocortin receptor 3 [4]): 2.5 µM; IC50 (Melanocortin receptor 5 [5]): 2.8 µM; EC50 (Melanocortin receptor 5 [6]): > 5 µM; IC50 [7]: 5 µM; EC50 [8]: > 5 µM; IC50 (Melanocortin receptor 3 [9]): 4.9 µM
9 | CC(C)N(CC(C1CCCCC1)N1CCN(C(=O)[C@@H]2CN(C(C)(C)C)C[C@H]2c2ccc(F)cc2F)CC1)C(=O)c1ncccn1 (single isomer, unassigned; diastereomer 1) |  |  | 98 | 
10 | CC(C)N(CC(C1CCCCC1)N1CCN(C(=O)[C@@H]2CN(C(C)(C)C)C[C@H]2c2ccc(F)cc2F)CC1)C(=O)c1ncccn1 (stereo in doubt; 22B) [listing 2 of 2 here] | 0.13 | 0.015 |  | 
11 | CC(C)N(CC(C1CCCCC1)N1CCN(C(=O)[C@@H]2CN(C(C)(C)C)C[C@H]2c2ccc(F)cc2F)CC1)C(=O)c1cccnn1 (single isomer, unassigned; diastereomer 1) [listing 1 of 2 here] |  |  | 102 | Activity (Melanocortin receptor 3 [10]): 108%; Activity (Melanocortin receptor 5 [11]): 68%; Activity [12]: 58%
12 | CC(=O)N(CC(CC(C)C)N1CCN(C(=O)[C@@H]2CN(C(C)(C)C)C[C@H]2c2ccc(F)cc2F)CC1)C(C)C (single isomer, unassigned; diastereomer 2) [listing 1 of 2 here] |  |  | 113 | Activity (Melanocortin receptor 3 [10]): 109%; Activity (Melanocortin receptor 5 [11]): 56%; Ratio IC50 (Homo sapiens [13]): 20; Ratio EC50 (Homo sapiens [14]): 20; Ratio IC50 (Homo sapiens [15]): 20; Ratio EC50 (Homo sapiens [16]): 20; Activity [12]: 77%
13 | CCCN(CCC)CC(C1CCCCC1)N1CCN(C(=O)[C@@H]2CN(C(C)(C)C)C[C@H]2c2ccc(F)cc2F)CC1 (stereo partly drawn) | 0.2 | 0.71 | 97 | 
14 | CC(C)CC(CN(C(C)C)S(C)(=O)=O)N1CCN(C(=O)[C@@H]2CN(C(C)(C)C)C[C@H]2c2ccc(F)cc2F)CC1 (single isomer, unassigned; diastereomer 2) [listing 2 of 2 here] |  |  | 100 | Activity (Melanocortin receptor 3 [10]): 87%; Activity (Melanocortin receptor 5 [11]): 76%; Ratio IC50 (Homo sapiens [13]): 20; Ratio EC50 (Homo sapiens [14]): 20; Ratio IC50 (Homo sapiens [15]): 20; Ratio EC50 (Homo sapiens [16]): 20; Activity [12]: 62%
15 | CC(C)N(CC(C1CCCCC1)N1CCN(C(=O)[C@@H]2CN(C(C)(C)C)C[C@H]2c2ccc(F)cc2F)CC1)C(=O)c1cccnn1 (single isomer, unassigned; diastereomer 1) [listing 2 of 2 here] | 0.018 | 0.0054 |  | EC50 (Melanocortin receptor 3 [4]): 0.09 µM; IC50 (Melanocortin receptor 5 [5]): 0.13 µM; EC50 (Melanocortin receptor 5 [6]): 0.49 µM; IC50 [7]: 1.9 µM; EC50 [8]: 1.2 µM; IC50 (Melanocortin receptor 3 [9]): 0.77 µM
16 | CC(=O)N(CC(C1CCCCC1)N1CCN(C(=O)[C@@H]2CN(C(C)(C)C)C[C@H]2c2ccc(F)cc2F)CC1)C(C)C (single isomer, unassigned; diastereomer 1) [listing 2 of 2 here] |  |  | 134 | 
17 | CC(=O)N(CC(N1CCN(C(=O)[C@@H]2CN(C(C)(C)C)C[C@H]2c2ccc(F)cc2F)CC1)C(C)(C)C)C(C)C (single isomer, unassigned; diastereomer 1) [listing 1 of 2 here] |  |  |  | IC50 (Melanocortin receptor 4 [1]; cho): 0.15 µM; EC50 (Melanocortin receptor 4 [2]; cho): 0.18 µM

Row | Structure (SMILES) | IC50 (Melanocortin receptor 4 [1]) [µM] | EC50 (Melanocortin receptor 4 [2]) [µM] | Activity (Melanocortin receptor 4 [3]) [%] | other results
18 | CC(C)N(CC(C1CCCCC1)N1CCN(C(=O)[C@@H]2CN(C(C)(C)C)C[C@H]2c2ccc(F)cc2F)CC1)C(=O)c1cnn(C(C)C)c1 (single isomer, unassigned; diastereomer 1) | 0.018 | 0.0064 |  | EC50 (Melanocortin receptor 3 [4]): 0.079 µM; IC50 (Melanocortin receptor 5 [5]): 0.62 µM; EC50 (Melanocortin receptor 5 [6]): 1 µM; IC50 [7]: 0.73 µM; EC50 [8]: 0.52 µM; IC50 (Melanocortin receptor 3 [9]): 0.87 µM
19 | CC(C)N(CC(C1CCCCC1)N1CCN(C(=O)[C@@H]2CN(C(C)(C)C)C[C@H]2c2ccc(F)cc2F)CC1)S(C)(=O)=O (single isomer, unassigned; diastereomer 2) |  |  | 117 | Activity (Melanocortin receptor 3 [10]): 94%; Activity (Melanocortin receptor 5 [11]): 57%; Ratio IC50 (Homo sapiens [13]): 20; Ratio EC50 (Homo sapiens [14]): 20; Ratio IC50 (Homo sapiens [15]): 20; Ratio EC50 (Homo sapiens [16]): 20; Activity [12]: 63%
20 | CC(C)N(CC(C1CCCCC1)N1CCN(C(=O)[C@@H]2CN(C(C)(C)C)C[C@H]2c2ccc(F)cc2F)CC1)C(=O)c1cnn(C(C)C)c1 (single isomer, unassigned; diastereomer 2) [listing 1 of 2 here] |  |  | 81 | 
21 | CC(C)N(CC(C1CCCCC1)N1CCN(C(=O)[C@@H]2CN(C(C)(C)C)C[C@H]2c2ccc(F)cc2F)CC1)S(C)(=O)=O (single isomer, unassigned; diastereomer 1) [listing 1 of 2 here] |  |  | 114 | 
22 | CC(=O)N(CC(CC(C)C)N1CCN(C(=O)[C@@H]2CN(C(C)(C)C)C[C@H]2c2ccc(F)cc2F)CC1)C(C)C (single isomer, unassigned; diastereomer 2) [listing 2 of 2 here] | 0.023 | 0.0097 |  | EC50 (Melanocortin receptor 3 [4]): 0.88 µM; IC50 (Melanocortin receptor 5 [5]): 1.1 µM; EC50 (Melanocortin receptor 5 [6]): > 5 µM; IC50 [7]: 3.6 µM; EC50 [8]: 0.56 µM; IC50 (Melanocortin receptor 3 [9]): 4.7 µM
23 | CC(=O)N(CC(N1CCN(C(=O)[C@@H]2CN(C(C)(C)C)C[C@H]2c2ccc(F)cc2F)CC1)C(C)(C)C)C(C)C (single isomer, unassigned; diastereomer 2) [listing 1 of 2 here] | 0.15 | 0.18 |  | 
24 | CC(=O)N(CC(N1CCN(C(=O)[C@@H]2CN(C(C)(C)C)C[C@H]2c2ccc(F)cc2F)CC1)C(C)(C)C)C(C)C (single isomer, unassigned; diastereomer 1) [listing 2 of 2 here] |  |  | 89 | 
25 | CC(C)N(CC(N1CCN(C(=O)[C@@H]2CN(C(C)(C)C)C[C@H]2c2ccc(F)cc2F)CC1)C(C)(C)C)S(C)(=O)=O (stereo in doubt; 27A) [listing 1 of 2 here] | 0.053 | 0.019 |  | 
26 | CC(C)CC(CN(C(C)C)S(C)(=O)=O)N1CCN(C(=O)[C@@H]2CN(C(C)(C)C)C[C@H]2c2ccc(F)cc2F)CC1 (single isomer, unassigned; diastereomer 1) [listing 1 of 2 here] |  |  | 117 | 
27 | CC(=O)N(CC(N1CCN(C(=O)[C@@H]2CN(C(C)(C)C)C[C@H]2c2ccc(F)cc2F)CC1)C(C)(C)C)C(C)C (single isomer, unassigned; diastereomer 2) [listing 2 of 2 here] |  |  | 94 | 
28 | CC(C)N(CC(C1CCCCC1)N1CCN(C(=O)[C@@H]2CN(C(C)(C)C)C[C@H]2c2ccc(F)cc2F)CC1)C(=O)c1cnn(C(C)C)c1 (single isomer, unassigned; diastereomer 2) [listing 2 of 2 here] | 0.062 | 0.019 |  | 
29 | CC(C)CC(CN(C(C)C)S(C)(=O)=O)N1CCN(C(=O)[C@@H]2CN(C(C)(C)C)C[C@H]2c2ccc(F)cc2F)CC1 (single isomer, unassigned; diastereomer 1) [listing 2 of 2 here] | 0.088 | 0.047 |  | 
30 | CC(C)N(CC(C1CCCCC1)N1CCN(C(=O)[C@@H]2CN(C(C)(C)C)C[C@H]2c2ccc(F)cc2F)CC1)C(=O)c1cccnn1 (single isomer, unassigned; diastereomer 2) [listing 1 of 2 here] |  |  | 99 | 
31 | CC(C)NCC(C1CCCCC1)N1CCN(C(=O)[C@@H]2CN(C(C)(C)C)C[C@H]2c2ccc(F)cc2F)CC1 (stereo partly drawn) | 0.31 | 0.24 | 95 | 
32 | CC(C)N(CC(C1CCCCC1)N1CCN(C(=O)[C@@H]2CN(C(C)(C)C)C[C@H]2c2ccc(F)cc2F)CC1)C(=O)c1cccnn1 (single isomer, unassigned; diastereomer 2) [listing 2 of 2 here] | 0.064 | 0.0091 |  | 
33 | CC(C)N(CC(C1CCCCC1)N1CCN(C(=O)[C@@H]2CN(C(C)(C)C)C[C@H]2c2ccc(F)cc2F)CC1)S(C)(=O)=O (single isomer, unassigned; diastereomer 1) [listing 2 of 2 here] | 0.015 | 0.025 |  | 
34 | CC(C)N(CC(N1CCN(C(=O)[C@@H]2CN(C(C)(C)C)C[C@H]2c2ccc(F)cc2F)CC1)C(C)(C)C)S(C)(=O)=O (stereo in doubt; 27A) [listing 2 of 2 here] |  |  | 88 | 

Reference: ChEMBL document CHEMBL1208738, “Optimization of privileged structures for selective and potent melanocortin subtype-4 receptor ligands” (Bioorg Med Chem Lett, 2010)
